Measurements reported in US9958450B2, “L-glucose derivatives having fluorescent chromophore” (HIROSAKI UNIVERSITY, priority 2008, dated 2018).
Values belong to the compound of their own block, whether it stands above or below them.

What was measured:
[1] = Fluorescence spectrum (maximum fluorescence wavelength); type: physicochemical
From the text: When the case where a mixed liquid of 2-NBDG and 2-TRLG was used as the mixed liquid of a D-glucose derivative that has a fluorescent chromophore in the molecule and is specifically incorporated into cells and an L-glucose derivative that has, in the molecule, a fluorescent chromophore that emits fluorescence at a wavelength different from that of the fluorescence emitted by the D-glucose derivative that has a fluorescent chromophore in the molecule and is specifically incorporated into cells is cited as an example, the maximum fluorescence wavelength of the former is from 540 nm to 550 nm, and the maximum fluorescence wavelength of the latter is from 600 nm to 610 nm. Therefore, when the fluorescence at a wavelength in the vicinity of each of the maximum fluorescence wavelengths is detected for the solution obtained by mixing both glucose derivatives, the green fluorescence emitted by 2-NBDG and the red fluorescence emitted by 2-TRLG can be detected, respectively, and as a result of combining the both fluorescence spectra detected, yellow fluorescence can be detected. After administration of the mixed liquid of 2-NBDG and 2-TRLG to cells, when 2-NBDG is specifically incorporated into the cells, green fluorescence is detected from the inside of the cells. […] Therefore, by detecting the green fluorescence emitted by 2-NBDG after the mixed liquid of 2-NBDG and 2-TRLG is administered to cells, the specific incorporation of D-glucose into cells relative to L-glucose can be accurately evaluated in real time.
Incidentally, the validity of this evaluation result is supported by the result that when the mixed solution of 20 μM 2-TRLG and 100 μM 2-NBDG is used, green fluorescence emitted by 2-NBDG can be detected by detecting fluorescence at around 540 nm, and red fluorescence emitted by 2-TRLG can be detected by detecting fluorescence at around 610 nm (in the case of pH 7.4, the maximum fluorescence wavelength of 2-NBDG is 540 nm, and the maximum fluorescence wavelength of 2-TRLG is 610 nm, see FIG. 4). […]

[2] = test system: acutely isolated neurons; assay: Application of mixed solution of 2-NBDG and 2-TRLG to acutely isolated neurons (real-time laser scanning confocal fluorescence microscope); type: cell-based, mouse; conditions: mixed solution of 20 μM 2-TRLG and 100 μM 2-NBDG administered for 1 minute, 24° C., image at 1 minute after stopping the administration
Experimental: The preparation of acutely isolated neurons was performed in the same manner as in Example 1.
Then, 10 μL of this 2 mM solution was dissolved in 1 mL of a glucose-free HEPES buffer solution^note 6) containing 100 μM 2-NBDG so as to dilute the 2 mM solution to 100-fold, whereby a mixed solution of 20 μM 2-TRLG and 100 μM 2-NBDG was obtained.
3 mL of a HEPES solution^note 2) was added to a 35-mm glass bottom culture dish^note 4) having a glass bottom to which neurons were adhered, and further 3 mL of mineral oil (M8410, Sigma CO., Ltd.) was laminated thereon. […]
A total of three detectors (channels): a photomultiplier detector for light in a green wavelength range (PMT1) and a photomultiplier detector for light in a red wavelength range (PMT2), and also a detector for transmitted light (PMTTrans) were used simultaneously, and 512×512 pixel images were captured. The detection sensitivity was set as follows: PMT1: 868 V, PMT2: 868 V, and PMTtrans: 245 V. Incidentally, the optimal values of the detection wavelength ranges of green fluorescence (500-580 nm) and red fluorescence (580-740 nm) were selected not on the basis of an emission filter system, but on the basis of a system using a prism spectroscope and a slit in combination (standard of TCS SP5, Leica, Inc.). […]

[3] = test system: Escherichia coli K12; assay: Incorporation of 2-NBDG or 2-NBDLG into Escherichia coli (evaluation for the state of Escherichia coli); type: cell-based; conditions: for difference in fluorescence detection between 2-NBDG and 2-NBDLG: dead cells prepared by treating live cells with 70% ethanol at room temperature for 10 minutes; for fluorescence due to the incorporation into the cells: live cells, 50 μM, 37° C. for 10 minutes
Experimental: Escherichia coli K12 was cultured with shaking overnight at 37° C. A 1 mL portion of the culture was centrifuged to collect cells, and the cells were suspended in 1 mL of phosphate buffered saline (PBS, a mixed solution of 0.01 M phosphate buffer and 0.137 M NaCl at pH 7.4). A 90 μL portion of the suspension was taken out, and 10 μL of the 2-NBDG solution or the 2-NBDLG solution was added thereto to give a final concentration of 50 μM, and then, an incorporation reaction was allowed to proceed at 37° C. for 10 minutes. After the reaction, the cells were collected by centrifugation and resuspended in PBS, and the cells were microscopically observed (objective lens ×10) and recorded using a CCD camera for microscopic observation.

[4] = test system: acutely isolated substantia nigra pars reticulata neurons; assay: Application of 2-NBDG or 2-NBDLG to acutely isolated neurons (normal fluorescence microscope); type: cell-based, mouse; conditions: 200 μM solution administered for 1 minute, 36 to 37° C., fluorescence images at 10 and 30 minutes after initiation of washing
Experimental: C57BL/6J mice at the age of 13 to 15 days after birth (juvenile period) or at the age of 33 to 45 days after birth (maturation period) were deeply anesthetized with urethane (i.p. 1.6 g/kg) and decapitated according to a common procedure. Thereafter, the brain was taken out from each mouse and cooled by immersion in a cold Ringer's solution^note 1) (at 0° C.) for 1 to 2 minutes, and then, coronal brain slices with a thickness of 400 μm were prepared using a microslicer (ZERO 1, Dosaka EM Co., Ltd.). […]
In a homemade perfusion chamber (Non-patent document 2) mounted on a heating-type xy stage (Zeiss Tempcontrol 37-2) of an inverted fluorescence microscope from Zeiss Axiovert 135 (100 W, a xenon light source), a 35-mm glass bottom culture dish^note 4) was placed, and a glass coverslip (neurons were placed thereon according to the method described in (A)) placed in the dish was perfused with a HEPES solution for recording at a rate of 1.3 mL/min. […]
In the fluorescence detection, a 450-490 nm standard bandpass excitation filter manufactured by Zeiss, Inc., a 510 nm dichroic mirror, and a 515-565 nm emission filter were used without using an ND filter, and as the objective lens, a Zeiss Plan Neofluar ×20 lens (NA 0.50) was used. […]

[5] = 2-NBDG, 2-TRLG and 2-NMALG mixed at 1:1:25 (molar ratio), excited by laser light at 405 nm (FIG. 6)

SMILES: O=[N+]([O-])c1ccc(NC2C(O)OC(CO)[C@@H](O)C2O)c2nonc12 (stereo partly drawn) [2-NBDG, 2-[N-(7-nitrobenz-2-oxa-1,3-diazol-4-yl)amino]-2-deoxy-D-glucose]
maximum fluorescence wavelength [1, 5]: around 540 nm | maximum fluorescence wavelength ([1]; pH 7.4, mixed solution of 20 μM 2-TRLG and 100 μM 2-NBDG (FIG. 4)): 540 nm | fluorescence based on incorporation into the cell [2]: only green fluorescence derived from 2-NBDG was observed | difference in fluorescence detection between 2-NBDG and 2-NBDLG [3]: a difference in the result of the fluorescence detection for 2-NBDG and 2-NBDLG was not observed | fluorescence due to the incorporation into the cells [3]: significant fluorescence due to the incorporation of 2-NBDG into the cells could be detected | green fluorescence from the cell (incorporation into the cell) [4]: green fluorescence from the cell was observed

SMILES: O=[N+]([O-])c1ccc(NC2C(O)OC(CO)[C@H](O)C2O)c2nonc12 (stereo partly drawn) [2-NBDLG, 2-[N-(7-nitrobenz-2-oxa-1,3-diazol-4-yl)amino]-2-deoxy-L-glucose]
difference in fluorescence detection between 2-NBDG and 2-NBDLG [3]: a difference in the result of the fluorescence detection for 2-NBDG and 2-NBDLG was not observed | fluorescence due to the incorporation into the cells [3]: could not be detected | green fluorescence from the cell (incorporation into the cell) [4]: almost no green fluorescence from the cell was observed

maximum fluorescence wavelength [1, 5]: around 450 nm
SMILES: CNc1ccccc1C(=O)N[C@H](C=O)[C@H](O)[C@@H](O)[C@@H](O)CO [2-NMALG, 2-[N-2-(N′-methylamino)benzoylamino]-2-deoxy-L-glucose]
